Test results taken from patent publication US9125922B2, “Phosphate esters of gyrase and topoisomerase inhibitors” (priority 2011, dated 2015).
Where two headings read alike, the source gives them in different places.

Columns and labels:
Aqueous Solubility Study = format: physicochemical; conditions: aqueous buffer, thermodynamic from solid; water, pH adjusted with 1.0N HCl, stirred 96 hours at room temperature, filtered, HPLC; filtrate pH per compound (23: >3.0; X: 4.41; Y: 3.01; Z: 4.35)
Experimental: The aqueous solubilities of compounds 23, X, Y, and Z were determined according to the following procedure.
Aqueous samples of each compound were prepared as follows. Compounds were weighed (20-30 mg compound) in 4 ml clear vials prior to adding water (0.5 mL) and stirring by magnetic stirrer. 1.0N HCl was added to the suspension to adjust the pH to the desired range. After stirring for 96 hours at room temperature, the suspension was filtered through a 0.22 micron filter (Millipore, Ultrafree centrifugal filters, Durapore PVDF 0.22 μm, Cat# UFC30GVNB). The filtrate was collected and the pH measured with a pH meter. The filtrates containing compounds X and Z were diluted 100-fold and 400-fold, respectively, to provide an appropriate concentration for HPLC analysis.
Standard solutions of each compound were prepared according to the following procedure. 1 to 2 mg of each compound was accurately weighed into a 10 mL volumetric flask and either water (for compounds X and Z), methanol (for compound Y), or 1:1 methanol:0.1N HCl (for compound 23) was added to completely dissolve the compounds. Sonication was performed for compound 23 to assist with the dissolution in 1:1 methanol:0.1N HCl. When all solids dissolved, additional solvent was added to adjust the volume of each solution to 10 ml. The resulting solutions were thoroughly mixed to give the standard solutions of each compound. Each standard solution was then diluted with solvent by 2-fold, 10-fold, and 100-fold.
Aliquots of each sample and each standard solution were analyzed by HPLC analysis (Agilent 1100, injection volume 10 μL, wavelength 271 nm, column XTerra® Phenyl 5 μm, 4.6×50 mm, Part No. 186001144, mobile phase: A: 0.1% TFA in water 0.1% TFA in AcN). Each standard solution was injected three times, and each of the samples was injected twice. Standard curves were obtained by plotting the average of the peak area from the HPLC versus the concentrations of the standard solutions (with appropriate corrections of the weights of the standards based on total water content of the solid as determined by elemental analysis). The concentration of each sample was calculated from the peak area of the aqueous sample from the HPLC results and the slope and intercept of the standard curves. The solubility values listed in Table 3 below were derived from the product of the concentration of the sample and the dilution factor of the sample.

S. aureus TopoIV enzyme = S. aureus TopoIV enzyme (Staphylococcus aureus, UniProt P0C1S7); experiment: DNA Topo IV ATPase Assay; format: biochemical
Chain of S. aureus TopoIV enzyme (P0C1S7 whole entry): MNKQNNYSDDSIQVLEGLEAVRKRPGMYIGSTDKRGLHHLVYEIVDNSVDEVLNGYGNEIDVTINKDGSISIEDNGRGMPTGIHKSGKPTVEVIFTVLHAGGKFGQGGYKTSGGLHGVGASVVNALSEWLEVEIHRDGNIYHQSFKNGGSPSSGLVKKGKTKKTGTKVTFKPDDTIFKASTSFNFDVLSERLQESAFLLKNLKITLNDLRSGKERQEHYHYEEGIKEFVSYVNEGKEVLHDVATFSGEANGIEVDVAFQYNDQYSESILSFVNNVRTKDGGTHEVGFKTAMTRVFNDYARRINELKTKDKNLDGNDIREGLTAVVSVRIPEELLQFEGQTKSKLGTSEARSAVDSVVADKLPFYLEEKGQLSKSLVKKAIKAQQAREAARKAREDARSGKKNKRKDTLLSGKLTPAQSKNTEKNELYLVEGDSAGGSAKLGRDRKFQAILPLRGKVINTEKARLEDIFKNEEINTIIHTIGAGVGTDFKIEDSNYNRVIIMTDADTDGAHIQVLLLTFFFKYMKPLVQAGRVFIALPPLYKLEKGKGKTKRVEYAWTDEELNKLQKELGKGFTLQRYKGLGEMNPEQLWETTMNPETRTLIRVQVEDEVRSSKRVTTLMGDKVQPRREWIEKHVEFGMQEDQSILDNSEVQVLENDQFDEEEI
Chain of S. aureus TopoIV enzyme (P0C1U9 whole entry partner): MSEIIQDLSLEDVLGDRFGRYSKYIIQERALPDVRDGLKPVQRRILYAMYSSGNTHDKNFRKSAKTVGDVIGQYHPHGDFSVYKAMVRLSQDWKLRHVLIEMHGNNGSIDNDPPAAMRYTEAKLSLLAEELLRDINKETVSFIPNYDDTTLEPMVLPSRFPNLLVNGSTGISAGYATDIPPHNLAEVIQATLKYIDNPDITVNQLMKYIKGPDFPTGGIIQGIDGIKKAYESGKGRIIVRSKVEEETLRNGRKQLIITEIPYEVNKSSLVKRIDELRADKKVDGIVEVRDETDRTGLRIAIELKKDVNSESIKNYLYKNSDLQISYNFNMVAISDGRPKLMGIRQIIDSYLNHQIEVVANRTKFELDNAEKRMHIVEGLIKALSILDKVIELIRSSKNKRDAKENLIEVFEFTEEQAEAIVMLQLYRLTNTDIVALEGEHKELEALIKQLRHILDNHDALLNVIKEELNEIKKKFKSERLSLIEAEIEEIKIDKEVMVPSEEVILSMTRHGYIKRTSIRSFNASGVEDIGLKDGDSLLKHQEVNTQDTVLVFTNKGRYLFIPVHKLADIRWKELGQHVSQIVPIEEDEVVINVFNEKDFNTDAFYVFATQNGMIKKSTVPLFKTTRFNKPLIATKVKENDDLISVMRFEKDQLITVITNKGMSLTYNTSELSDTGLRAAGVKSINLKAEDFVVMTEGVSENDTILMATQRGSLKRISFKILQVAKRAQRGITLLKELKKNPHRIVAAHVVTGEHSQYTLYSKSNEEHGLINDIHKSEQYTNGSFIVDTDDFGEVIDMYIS
Experimental: The conversion of ATP to ADP by S. aureus TopoIV enzyme was coupled to the conversion of NADH to NAD+, and the progress of the reaction was measured by the change in absorbance at 340 nm. TopoIV (64 nM) was incubated with the selected compound (3% DMSO final) in buffer for 10 minutes at 30° C. The buffer consisted of 100 mM Tris 7.5, 1.5 mM MgCl2, 200 mM K·Glutamate, 2.5 mM phosphoenol pyruvate, 0.2 mM NADH, 1 mM DTT, 5 μg/mL linearized DNA, 50 μg/mL BSA, 30 μg/mL pyruvate kinase, and 10 μg/mL lactate dehyrodgenase (LDH). The reaction was initiated with ATP, and rates were monitored continuously for 20 minutes at 30° C. on a Molecular Devices SpectraMAX plate reader. The inhibition constant, Ki, was determined from plots of rate vs. concentration of selected compound fit to the Morrison Equation for tight binding inhibitors.

S. aureus DNA gyrase = S. aureus DNA gyrase (Staphylococcus aureus, UniProt P0A0K8); experiment: DNA Gyrase ATPase Assay; format: biochemical; conditions: coupled ATPase assay, 30° C., 90 nM enzyme, 0.9 mM ATP; read-out: Ki, Inhibition of S. aureus DNA Gyrase
Chain of S. aureus DNA gyrase (P0A0K8 whole entry): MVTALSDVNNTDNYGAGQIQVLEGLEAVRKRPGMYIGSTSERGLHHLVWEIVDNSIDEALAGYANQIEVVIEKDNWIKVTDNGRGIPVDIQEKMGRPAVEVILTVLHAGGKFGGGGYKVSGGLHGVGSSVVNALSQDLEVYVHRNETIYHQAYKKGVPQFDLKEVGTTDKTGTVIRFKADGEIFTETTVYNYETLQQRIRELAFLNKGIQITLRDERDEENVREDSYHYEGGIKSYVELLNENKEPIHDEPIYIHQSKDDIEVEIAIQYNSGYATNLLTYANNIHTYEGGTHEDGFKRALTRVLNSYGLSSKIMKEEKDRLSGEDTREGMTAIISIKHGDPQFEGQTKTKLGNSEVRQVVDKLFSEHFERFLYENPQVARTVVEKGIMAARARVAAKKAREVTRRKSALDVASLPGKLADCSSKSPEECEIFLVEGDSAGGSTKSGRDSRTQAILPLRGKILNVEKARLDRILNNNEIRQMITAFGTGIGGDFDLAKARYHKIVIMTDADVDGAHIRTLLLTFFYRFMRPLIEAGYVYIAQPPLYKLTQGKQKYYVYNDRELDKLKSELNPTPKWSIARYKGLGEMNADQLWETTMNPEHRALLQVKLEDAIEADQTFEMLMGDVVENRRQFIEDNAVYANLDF
Chain of S. aureus DNA gyrase (P20831 whole entry partner): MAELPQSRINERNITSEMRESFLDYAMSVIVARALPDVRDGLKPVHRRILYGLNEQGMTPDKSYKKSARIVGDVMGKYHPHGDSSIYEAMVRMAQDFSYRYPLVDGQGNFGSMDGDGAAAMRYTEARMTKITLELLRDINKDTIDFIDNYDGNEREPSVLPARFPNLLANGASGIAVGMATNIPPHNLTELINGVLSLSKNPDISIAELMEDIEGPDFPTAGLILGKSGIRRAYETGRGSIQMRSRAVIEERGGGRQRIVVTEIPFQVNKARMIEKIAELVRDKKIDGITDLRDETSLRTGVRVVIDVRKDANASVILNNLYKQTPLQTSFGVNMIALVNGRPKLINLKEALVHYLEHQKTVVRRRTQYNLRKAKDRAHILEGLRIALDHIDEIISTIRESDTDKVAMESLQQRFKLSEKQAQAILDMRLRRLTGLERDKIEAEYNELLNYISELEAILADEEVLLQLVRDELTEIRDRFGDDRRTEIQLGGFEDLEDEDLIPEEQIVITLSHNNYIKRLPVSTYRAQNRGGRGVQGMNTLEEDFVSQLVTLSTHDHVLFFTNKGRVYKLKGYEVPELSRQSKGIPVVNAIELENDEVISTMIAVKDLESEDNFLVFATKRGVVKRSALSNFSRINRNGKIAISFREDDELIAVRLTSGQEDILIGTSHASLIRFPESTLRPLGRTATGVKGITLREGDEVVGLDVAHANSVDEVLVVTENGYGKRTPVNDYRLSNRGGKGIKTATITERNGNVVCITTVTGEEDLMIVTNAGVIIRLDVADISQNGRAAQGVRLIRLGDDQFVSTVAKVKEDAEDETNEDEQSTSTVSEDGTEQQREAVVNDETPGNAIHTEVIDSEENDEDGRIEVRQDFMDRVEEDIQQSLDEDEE
Experimental: The ATP hydrolysis activity of S. aureus DNA gyrase was measured by coupling the production of ADP through pyruvate kinase/lactate dehydrogenase to the oxidation of NADH. This method has been described previously (Tamura and Gellert, 1990, J. Biol. Chem., 265, 21342).
ATPase assays were carried out at 30° C. in buffered solutions containing 100 mM TRIS pH 7.6, 1.5 mM MgCl2, 150 mM KCl. The coupling system contains final concentrations of 2.5 mM phosphoenol pyruvate, 200 μM nicotinamide adenine dinucleotide (NADH), 1 mM DTT, 30 ug/ml pyruvate kinase, and 10 ug/ml lactate dehydrogenase. The enzyme (90 nM final concentration) and a DMSO solution (3% final concentration) of the selected compound were added. The reaction mixture was allowed to incubate for 10 minutes at 30° C. The reaction was initiated by the addition of ATP to a final concentration of 0.9 mM, and the rate of NADH disappearance was monitored at 340 nanometers over the course of 10 minutes. The Ki values were determined from rate versus concentration profiles.

[1] = coupled ATPase assay, 30° C., 64 nM TopoIV, Morrison Equation fit, read-out: Ki, Inhibition of S. aureus DNA Topo IV

Compound	solubility at 96 h (Aqueous Solubility Study)	Ki (S. aureus TopoIV enzyme; [1])	Ki (S. aureus DNA gyrase)	Ki (S. aureus TopoIV enzyme)
CCNC(=O)Nc1nc2cc(-c3cnc(C(C)(C)OP(=O)(O)OCCN4CCOCC4)nc3)c(F)c([C@H]3CCCO3)c2[nH]1 [Compound Z, 2-(5-(2-(3-ethylureido)-6-fluoro-7-((R)-tetrahydrofuran-2-yl)-1H-benzo[d]imidazol-5-yl)pyrimidin-2-yl)propan-2-yl 2-morpholinoethyl hydrogen phosphate]	> 41 mg/mL	0.08 µM	< 0.009 µM	–
CCNC(=O)Nc1nc2cc(-c3cnc(C(C)(C)OP(=O)(O)OCCOCCOC)nc3)c(F)c([C@H]3CCCO3)c2[nH]1 [Compound X, ammonium (R)-2-(5-(2-(3-ethylureido)-6-fluoro-7-(tetrahydrofuran-2-yl)-1H-benzo[d]imidazol-5-yl)pyrimidin-2-yl)propan-2-yl 2-(2-methoxyethoxy)ethyl phosphate]	12.7 mg/mL	0.045 µM	< 0.009 µM	–
CCCCCCCCCCCCCCCCOP(=O)(O)OC(C)(C)c1ncc(-c2cc3nc(NC(=O)NCC)[nH]c3c([C@H]3CCCO3)c2F)cn1 [Compound Y, ammonium (R)-2-(5-(2-(3-ethylureido)-6-fluoro-7-(tetrahydrofuran-2-yl)-1H-benzo[d]imidazol-5-yl)pyrimidin-2-yl)propan-2-yl hexadecyl phosphate]	< 0.001 mg/mL	0.024 µM	0.013 µM	–
CCNC(=O)Nc1nc2cc(-c3cnc(C(C)(C)O)nc3)c(F)c([C@H]3CCCO3)c2[nH]1 [Compound 23, (R)-1-ethyl-3-(6-fluoro-5-(2-(2-hydroxypropan-2-yl)pyrimidin-5-yl)-7-(tetrahydrofuran-2-yl)-1H-benzo[d]imidazol-2-yl)urea]	< 0.001 mg/mL	–	–	0.009 µM
